{"source": "patent US20260027145A1", "about": "(priority 2022, published 2026)", "key": {"[1]": {"system": "resting pan-T cells", "assay_type": "cell-based, human"}, "[2]": {"system": "IFITM1", "assay_type": "cell-based, human"}, "[3]": {"system": "resting pan-T cells"}, "[4]": {"system": "IFITM1", "assay_type": "cell-based, human", "remark": "listed apart in the source"}, "[5]": {"system": "CD8+ cells", "assay_type": "cell-based, human"}, "[6]": {"system": "IFITM1", "assay_type": "cell-based, human", "remark": "listed apart in the source"}, "[7]": {"system": "phosphorylated SAMHD1 (pSAMHD1)", "assay_type": "cell-based, human", "settings": "CD4+ and CD8+ T cells; for proportion of pSAMHD1 to total SAMHD1: IL-7 15 ng/mL, IL-15 15 ng/mL or both", "experimental": "The effect of IL-7 and IL-15 on phosphorylated SAMHD1 (pSAMHD1) and IFITM1 expression was assessed. CD4+ and CD8+ T cells were treated with either IL-2 (100 U/mL), IL-15 (15 ng/mL), IL-7 (15 ng/mL), or a composition comprising both IL-7 and IL-15. Cells were activated with anti-CD3/[…] antibody coated beads at a ratio of 3:1, and then cells were assessed for expression of IFITM1 or pSAMHD1. Aggregate densitometry across multiple donors are shown in FIG. 3A (CD8+) and FIG. 3B (CD4+), while representative western blots are also depicted in FIG. 3C (CD8+) and FIG. 3D (CD4+)."}, "[8]": {"system": "IFITM1", "assay_type": "cell-based, human", "remark": "listed apart in the source"}, "[9]": {"system": "resting pan-T cells", "assay_type": "cell-based, human", "remark": "listed apart in the source"}, "[10]": {"system": "pSAMHD1", "assay_type": "cell-based, human"}, "[11]": {"system": "Nalm6 cells"}}, "note": "Entries after “also recorded” stand apart in the source; their conditions may differ. Where two headings read alike, the source gives them in different places.", "data": [{"compound": "C[C@@H]1[C@H](O)[C@@H](C)/C=C/C=C/C=C/C=C/C=C/C=C/C=C/[C@H](O[C@@H]2O[C@H](C)[C@@H](O)[C@H](N)[C@@H]2O)C[C@@H]2O[C@](O)(C[C@@H](O)C[C@@H](O)[C@H](O)CC[C@@H](O)C[C@@H](O)CC(=O)O[C@H]1C)C[C@H](O)[C@H]2C(=O)O", "note": "[AmphoB, Amphotericin B]", "values": [{"measurement": "concentrations at which gain in transduction efficiency is seen", "setting": "[1]", "result": "≥ 0.1", "unit": "µM"}, {"measurement": "transduction efficiency (% GFP)", "setting": "[1]", "result": "increased transduction efficiency"}, {"measurement": "restriction factor IFITM1 (western blot)", "setting": "[2]", "result": "inactivation or loss"}, {"measurement": "CD8 and CD4 cell number", "setting": "[3]", "result": "slightly reduced"}]}, {"compound": "CO[C@H]1C[C@@H]2CC[C@@H](C)[C@@](O)(O2)C(=O)C(=O)N2CCCC[C@H]2C(=O)O[C@H]([C@H](C)C[C@@H]2CC[C@@H](OC(=O)C(C)(CO)CO)[C@H](OC)C2)CC(=O)[C@H](C)/C=C(\\C)[C@@H](O)[C@@H](OC)C(=O)[C@H](C)C[C@H](C)/C=C/C=C/C=C/1C", "note": "[TEM, temsirolimus]", "values": [{"measurement": "IFITM1 protein expression", "setting": "[4]", "result": "pronounced loss of IFITM1 protein expression"}, {"measurement": "transduction efficiency (viral copy number per diploid genome)", "setting": "[5]", "result": "Increased transduction efficiency"}, {"measurement": "transduction of the GFP transgene (% GFP)", "setting": "[1]", "result": "enhance transduction"}, {"measurement": "CD3 number", "setting": "[3]", "result": "remained generally consistent"}, {"measurement": "CD8 and CD4 T-cells (cell counts)", "setting": "[3]", "result": "reduced"}]}, {"compound": "CO[C@H]1C[C@@H]2CC[C@@H](C)[C@@](O)(O2)C(=O)C(=O)N2CCCC[C@H]2C(=O)O[C@H]([C@H](C)C[C@@H]2CC[C@@H](O)[C@H](OC)C2)CC(=O)[C@H](C)/C=C(\\C)[C@@H](O)[C@@H](OC)C(=O)[C@H](C)C[C@H](C)/C=C/C=C/C=C/1C", "note": "[rapamycin]", "values": [{"measurement": "downregulation of IFITM1 expression", "setting": "[6]", "result": "20-35%"}, {"measurement": "reduction of IFITM1 expression", "setting": "[6]", "result": "5-40%"}]}, {"compound": "IL-7: recombinant cytokine", "values": [{"measurement": "levels of pSAMHD1", "setting": "[7]; IL-7 15 ng/mL pre-treatment", "result": "increased levels of pSAMHD1"}, {"measurement": "proportion of pSAMHD1 to total SAMHD1", "setting": "[7]", "result": "increased"}, {"measurement": "IFITM1 expression", "setting": "[8]", "result": "similarly increased"}, {"measurement": "transduction efficiency (% GFP)", "setting": "[9]", "result": "did not lead to dose-dependent differences in transduction efficiency"}, {"measurement": "pSAMHD1 levels", "setting": "[10]", "result": "increase in pSAMHD1 levels"}, {"measurement": "transduction efficiency (% GFP) with cytokine pretreatment", "setting": "[1]", "result": "positively impact transduction; also recorded: increased transduction efficiency"}, {"measurement": "cytotoxicity (Nalm6 loss related to untransduced controls)", "setting": "[11]", "result": "Increased cytotoxicity"}]}, {"compound": "IL-15: recombinant cytokine", "values": [{"measurement": "proportion of pSAMHD1 to total SAMHD1", "setting": "[7]", "result": "increased"}, {"measurement": "IFITM1 expression", "setting": "[8]", "result": "similarly increased"}]}]}
